What was measured:
human CRTH2 [1] = target: T1, human CRTH2 (Homo sapiens, UniProt Q9Y5Y4); assay: Calcium Flux Assay Using Fluorometric Imaging Plate Reader (FLIPR); type: cell-based; set-up: expressed in transfected cells; host or cells: CHO-K1 previously transfected with G-alpha 16; conditions: CHO-K1 cells with G-alpha 16 and human CRTH2; inhibition of DK-PGD2 ligand-induced Ca2+ flux
T1 sequence (Q9Y5Y4 1-395): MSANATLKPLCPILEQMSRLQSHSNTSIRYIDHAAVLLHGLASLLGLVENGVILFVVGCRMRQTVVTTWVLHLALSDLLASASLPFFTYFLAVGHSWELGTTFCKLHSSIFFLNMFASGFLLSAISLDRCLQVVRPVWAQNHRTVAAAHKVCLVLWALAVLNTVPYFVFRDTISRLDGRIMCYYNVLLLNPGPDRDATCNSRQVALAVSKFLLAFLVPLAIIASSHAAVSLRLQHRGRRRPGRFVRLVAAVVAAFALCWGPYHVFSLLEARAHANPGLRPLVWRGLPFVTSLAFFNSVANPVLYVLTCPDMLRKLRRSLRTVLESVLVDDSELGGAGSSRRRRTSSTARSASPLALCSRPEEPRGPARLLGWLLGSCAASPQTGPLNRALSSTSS
Procedure: CHO-K1 cells previously transfected with G-alpha 16 were subsequently transfected with the human CRTH2 receptor and the neomycin resistance gene. Following selection in 800 μg/mL G418 (geneticin), individual clones were assayed for their receptor expression based on staining with an anti human CRTH2 IgG, followed by assaying for their response to 13,14-dihydro-15-keto Prostaglandin D2 (DK-PDG2) (ligand) in the Ca^2+ Flux assay. Positive clones were then cloned by limiting dilution cloning. The transfected cells were cultured in Ham's F-12 medium supplemented with 10% fetal bovine serum, 2 mM glutamine, 100 U/mL penicillin/100 μg/mL streptomycin, 200 μg/mL hygromycin B, and 800 μg/mL G418 (geneticin). Cells were harvested with trypsin-EDTA (trypsin-ethylenediaminetetraacetic acid) and counted using ViaCount® reagent (from Guava Technologies, Inc. which contains two DNA-binding dyes that enable the reagent user to distinguish between viable and non-viable cells). The cell suspension volume was adjusted to 2.5×10^5 cells/mL with complete growth media. Aliquots of 50 μL were dispensed into BD Falcon™ 384 well black/clear microplates (from BD Biosciences, a division of Becton, Dickinson and Company) and the microplates were placed in a 37° C. CO2 incubator overnight. The following day, the microplates were used in the assay.
Loading Buffer containing dye (from the FLIPR® Calcium 3 Assay Kit from Molecular Devices, a division of MDS Analytical Technologies and MDS Inc.) was prepared by dissolving the contents of one bottle into 200 mL Hank's Balanced Salt Solution containing 20 mM HEPES (4-(2-hydroxyethyl)-1-piperazineethanesulfonic acid) and 2.5 mM probenecid. Growth media was removed from the cell plates and 25 μL of Hank's Balanced Salt Solution (HBSS) containing 20 mM HEPES, 0.05% BSA and 2.5 mM probenecid was added to each well followed by 25 μL of diluted dye using a Multidrop dispenser. The plates were then incubated for 1 hour at 37° C.
During the incubation, test compound plates were prepared by adding 90 μL of HBSS/20 mM HEPES/0.005% BSA buffer to the 2 μL of serial diluted compounds. To prepare serial diluted compounds, 20 mM stocks of compounds were dissolved in 100% DMSO. The compound dilution plate was set up as follows: well #1 received 5 μL of compound plus 10 μL of DMSO. Wells 2-10 received 10 μL of DMSO. 5 μL was mixed and transferred from well #1 into well #2. 1:3 serial dilutions were continued out 10 steps. 2 μl of diluted compound was transferred into duplicate wells of a 384 well “assay plate” and then 90 μL of buffer was added.
After incubation, both the cell and “assay plate” plates were brought to the fluorometric imaging plate reader (FLIPR®) and 20 μL of the diluted compounds were transferred to the cell plates by the FLIPR®. Plates were then incubated for 1 hour at room temperature. After the 1 hour incubation, plates were returned to the FLIPR® and 20 μL of 4.5× concentrated ligand was added to the cell plates. During the assay, fluorescence readings were taken simultaneously from all 384 wells of the cell plate every 1.5 seconds. Five readings were taken to establish a stable baseline, then 20 μL of sample was rapidly (30 μL/sec) and simultaneously added to each well of the cell plate. The fluorescence was continuously monitored before, during and after sample addition for a total elapsed time of 100 seconds. Responses (increase in peak fluorescence) in each well following agonist addition were determined. The initial fluorescence reading from each well, prior to ligand stimulation, was used as a zero baseline value for the data from that well. The responses were expressed as % inhibition of the buffer control. […]

human CRTH2 [2] = target: T1, human CRTH2; assay: Human CRTH2 Receptor Binding Assay (whole cell, [3H]ramatroban competition); set-up: two mammalian expression vectors that harbored human CRTH2 and G-alpha16 cDNAs; expressed in transfected cells; conditions: CHO-K1 cells expressing human CRTH2 and G-alpha16; 20 nM [3H]ramatroban; 1 hour, room temperature
Description: A whole cell receptor binding assay using [^3H]ramatroban as the competing radioactive ligand was employed to evaluate the compound binding activity to human CRTH2. The radioactive ligand [^3H]ramatroban was synthesized according to Sugimoto et. al. (Eur. J. Pharmacol. 2005, 524, 30-37) to a specific activity of 42 Ci/mmol
A cell line stably expressing human CRTH2 was established by transfecting CHO-K1 cells with two mammalian expression vectors that harbored human CRTH2 and G-alpha16 cDNAs, respectively, using FuGene® 6 transfection reagent (from Roche). Stable clones expressing CRTH2 were selected by staining each clone with BM16 (BD Pharmingen™ from BD Biosciences, a division of Becton, Dickinson and Company), which is a rat monoclonal antibody to human CRTH2. The cells were maintained as monolayer cultures in Ham's F-12 medium containing 10% fetal bovine serum, 100 units/mL penicillin, 100 μg/mL streptomycin, 2 mM glutamine, 0.5 mg/mL G418 (geneticin) for CRTH2, and 0.2 mg/mL hygromycin-B (for G-alpha 16). For whole cell receptor binding assay, the monolayer cells were rinsed once with PBS (phosphate buffered saline), dissociated using ethylenediaminetetraacetate (Versene™ EDTA from Lonza Inc.), and suspended in PBS containing 10 mM MgCl2 and 0.06% BSA (bovine serum albumin) at 1.5×10^6 cells/mL.
The binding reactions (0.2 mL) were performed in 96-well plates at room temperature in PBS containing 1.5×10^5 cells, 10 mM MgCl2, 0.06% BSA, 20 nM [^3H]ramatroban, and test compound at various concentrations. After 1 hour of binding reactions, the cells were harvested on GF™/B filter microplates (microtiter plates with embedded glass fiber from PerkinElmer, Inc.) and washed 5 times with PBS using a Filtermate™ Harvester (a cell harvester that harvests and washes cells from microplates from PerkinElmer, Inc.). The radioactivities bound to the cells were determined using a microplate scintillation counter (TopCount® NXT, from PerkinElmer, Inc.) after adding 50 μL of Microscint™ 20 scintillation fluid (from PerkinElmer, Inc.) to each well of the filter plates. The radioactivity from non-specific binding was determined by replacing compound with 10 μM of 15(R)-15-methyl PGD2 (from Cayman Chemical Company) in the reaction mixtures. The radioactivity bound to the cells in the absence of compound (total binding) was determined by replacing compound with 0.25% of DMSO (dimethyl sulfoxide) in the reaction mixture. Specific binding data were obtained by subtracting the radioactivity of non-specific binding from each binding data.
The IC50 value is defined as the concentration of the tested compound that is required for 50% inhibition of total specific binding. In order to calculate the IC50 value, the percent inhibition data were determined for 7 concentrations for each compound. The percent inhibition for a compound at each concentration was calculated according to the following formula, [1-(specific binding in the presence of compound)/(total specific binding)]×100. The IC50 value was then obtained by fitting the percent inhibition data to a sigmoidal dose-response (4 parameter logistic) model in the XLfit® software Excel add-in program [from ID Business Solutions Ltd., model 205, where F(x)=(A+(B−A)/(1+((C/x)̂D)))].

Work on O=C(O)COc1cccc2c1CCCCC2NS(=O)(=O)c1ccc(-c2cccc(C(F)(F)F)c2)cn1 (stereo not drawn) [Example 33, {5-[5-(3-Trifluoromethyl-phenyl)-pyridine-2-sulfonylamino]-6,7,8,9-tetrahydro-5H-benzocyclohepten-1-yloxy}-acetic acid] yielded an IC50 (human CRTH2 [1]) of 0.0292 µM and an IC50 (human CRTH2 [2]) of 0.178 µM.
CN(C1CCCCc2c(OCC(=O)O)cccc21)S(=O)(=O)c1ccc(-c2cccc(C(F)(F)F)c2)cn1 (stereo not drawn) [Example 34, (5-{Methyl-[5-(3-trifluoromethyl-phenyl)-pyridine-2-sulfonyl]-amino}-6,7,8,9-tetrahydro-5H-benzocyclohepten-1-yloxy)-acetic acid] gave an IC50 (human CRTH2 [1]) of 4.31 µM and an IC50 (human CRTH2 [2]) of 0.457 µM.
With Cc1cc(-c2ccc(S(=O)(=O)NC3CCCCc4c(OCC(=O)O)cccc43)nc2)cc(C(C)(C)C)c1 (stereo not drawn) [Example 35, {5-[5-(3-tert-Butyl-5-methyl-phenyl)-pyridine-2-sulfonylamino]-6,7,8,9-tetrahydro-5H-benzocyclohepten-1-yloxy}-acetic acid] the IC50 (human CRTH2 [1]) was 0.14 µM and the IC50 (human CRTH2 [2]) was 0.0179 µM.
In the case of Cc1cc(-c2ccc(S(=O)(=O)N(C)C3CCCCc4c(OCC(=O)O)cccc43)nc2)cc(C(C)(C)C)c1 (stereo not drawn) [Example 36, (5-{[5-(3-tert-Butyl-5-methyl-phenyl)-pyridine-2-sulfonyl]-methyl-amino}-6,7,8,9-tetrahydro-5H-benzocyclohepten-1-yloxy)-acetic acid], the IC50 (human CRTH2 [1]) is reported as 0.784 µM and the IC50 (human CRTH2 [2]) is reported as 0.164 µM.
Work on O=C(O)COc1cccc2c1CCCCC2NS(=O)(=O)c1ccc(-c2cccc(CCO)c2)cn1 (stereo not drawn) [Example 37, (5-{5-[3-(2-Hydroxy-ethyl)-phenyl]-pyridine-2-sulfonylamino}-6,7,8,9-tetrahydro-5H-benzocyclohepten-1-yloxy)-acetic acid] yielded an IC50 (human CRTH2 [1]) of 0.214 µM and an IC50 (human CRTH2 [2]) of 0.017 µM.
With CC(C)c1cccc(-c2cccc(S(=O)(=O)NC3CCCCc4c(OCC(=O)O)cccc43)c2)c1 (stereo not drawn) [Example 41, [5-(3′-Isopropyl-biphenyl-3-sulfonylamino)-6,7,8,9-tetrahydro-5H-benzocyclohepten-1-yloxy]-acetic acid] the IC50 (human CRTH2 [1]) was > 5 µM and the IC50 (human CRTH2 [2]) was 0.226 µM.

From patent US20120309796A1, “BENZOCYCLOHEPTENE ACETIC ACIDS” (priority 2011, published 2012)
